Reference: patent publication US20220380331A1, “TREATMENT OF CONDITIONS OF THE NERVOUS SYSTEM” (priority 2019, published 2022)

Columns and labels:
[1] = test system: HL sensory function after spinal cord injury; assay: Von Frey assay (50% withdrawal threshold) in spinal cord injured rats; type: in vivo, rat
Method: Changes to HL sensory function was assessed using von Frey methodologies to look for hyperalgesia and neuropathic pain. Four animals at a time were acclimatised to Perspex cages with a wire mesh bottom (FIG. 3) for approximately fifteen to twenty minutes before the test began and until general movement and grooming activities stopped. Von Frey filaments (Touch Test™ Sensory Evaluator Kit of 20; #39337500; Leica Biosystems, Milton Keynes, England FIG. 3C) were depressed through the mesh-bottomed cage against the more sensitive plantar arch of the HL footpads where withdrawal of the limb was counted as a positive result. Flinching was also seen as a positive response whereas walking was an ambiguous response requiring retesting after an appropriate delay. The left hindpaw and right hindpaw of all animals were performed in series to provide a sufficient interval between stimuli.

[2] = test system: PNN-HEK293 cells; assay: Immunocytochemistry of PNN formation (WFA) with PNNi analogues; type: cell-based, human
Method: To compare the efficacy of PNNi, JD009, and JD013 in reducing PNN formation, immunocytochemistry was conducted using the N-acetylgalactosamine-binding lectin WFA to label PNNs. PNN-HEK293 cells were exposed to 0.5 mM and 1 mM of the compounds for 3 days in vitro. […] Quantification of WFA fluorescence intensity per cell was derived in matched regions of interest (ROI) and normalising overall WFA fluorescence intensity to cell number.

[3] = test system: rat; conditions: in vivo, po; cited from earlier work
[4] = test system: locomotor function of intact rats; assay: BBB open field locomotor testing in intact rats after ten days of oral PNNi; type: in vivo, rat; conditions: short-term treatment
Method: HL locomotor ability was assessed at various time points throughout the acute SCI paradigm using the BBB HL locomotor scale. BBB testing was carried out using an open locomotor field (custom-built Perspex O-ring: diameter 80 cm, height 30 cm) where animals were placed for a duration of 4 minutes (FIG. 2). Each BBB test was simultaneously assessed by two individuals. The resulting scores were pooled and averaged for objectivity. BBB testing assesses HL motor function using a ranking scale from 0-21. Animals are ranked into three broad categories based on their BBB score: early phase (score of 0-7) presenting little to no limb movement; intermediate stage (score of 8-13) with bouts of uncoordinated stepping; and the late stage (score of 14-21) presenting with FL and HL coordination and stability (Basso et al., 1995). Following injury, BBBs were then carried out at 1 DPI to confirm injury and then weekly from 7 DPI. If animals also received rehabilitative training, BBBs were carried out beforehand.

[5] = test system: PNNs in the spinal cord; assay: Short-term (10 days) PNNi administration, histology of PNN/ECM components in the CNS; type: in vivo, rat
Method: Animals were given an overdose of sodium pentobarbital (Pentoject; Henry Schein; 200 mg/kg; intraperitoneal injection) to deeply […] without halting cardiac function. A transcardial perfusion (Gage et al., 2012) was then performed using sodium phosphate buffer (PB; 0.12 M sodium phosphate monobasic; 0.1 M NaOH; pH 7.4) followed by 4% paraformaldehyde (PFA; in PB; pH 7.4) for tissue fixation. The brain and spinal cord were dissected out, post-fixed in PFA (4%; 4° C.) overnight and cryoprotected in 30% sucrose solution (30% v/w sucrose in PB; 4° C.) until tissue saturation. The left brain hemisphere and appropriate spinal cord segments were excised and frozen in optimum temperature medium (OCT; Leica FSC 22 Frozen Section Media; Leica Biosystems) before storage at -80° C. until sectioning. Sectioning of tissue was performed using a cryostat (Leica CM1850; Leica Biosystems) into 40 μm transverse sections for free-floating sections and collected into 48-well plates containing physiological buffer solution (PBS; 0.13 M sodium chloride, […], 0.003 M sodium phosphate monobasic; pH 7.4) to remove the OCT before being transferred to 30% sucrose solution for storage at 4° C. At room temperature (RT), sections were washed three times for 5 min each in Tris-buffered saline (TBS; 0.1 M tris base, 0.15 M NaCl; pH 7.4) to remove sucrose residue. Tissue was then blocked in 0.3% TBST (1×TBS solution and 0.3% v/v Triton X-100) and 3% normal donkey serum (NDS; v/v) for two hours. The sections were then transferred to co-incubate at 4° C. in blocking buffer (3% NDS in 0.3% TBST; pH 7.4) containing primary antibodies. Following primary antibody or lectin incubation, sections were then washed thrice using TBS (10 mins; RT). To visualise each primary antibody staining, the tissue was then co-incubated in darkness with the fluorescent-conjugated secondary antibodies (1:500; 2 hrs; RT) against the species of the primary antibodies. Tissues were then washed three times in TBS (10 mins; RT) whilst protected from light. A final wash in Tris non-saline (TNS; 0.5 M Tris, pH 7.6) was given to reduce precipitation before air-drying. Tissues were mounted on Superfrost Plus slides, air-dried and coverslipped with the mounting medium FluorSaveTM Reagent (EMD Millipore). Lectins: biotinylated Wisteria floribunda agglutinin (bio-WFA), biotinylated hyaluronan binding protein (bHABP). […] PNNi treatment was consequently investigated in vivo, with short-term administration (10 days) via either oral feeding or intraperitoneal (i.p.) injection twice daily. […] Quantification in the dorsal horn of the spinal cord illustrated that ten days of oral PNNi administration induced a partial removal of WFA-positive moieties to 71.0±7.20% of baseline ECM levels (t(3)=5.15, p=0.0142; FIG. 9P). […] As oral PNNi treatment is both non-invasive and generated sufficient effects on the neural ECM in vivo, the following PNNi dosing experiments with Lister Hooded rats used this method of administration.

[6] = test system: mice; conditions: 6.8-12.8 g/kg in mice continuously for 6 months
[7] = test system: rats, mice and rabbits; conditions: very high doses; cited from earlier work

Cc1cc(=O)oc2cc(O)ccc12 [PNNi, 4-methylumbelliferone]
L-R average 50% withdrawal threshold, plantar hindpaws ([1]; 8 week PNNi with or without training, 9 and 12 WPI): did not show hyperalgesia | tactile sensitivity using von Frey hair test ([1]; treatment groups after T9 contusion injury, n=11): did not show any difference | PNN morphology and expression (WFA fluorescence intensity per cell) ([2]; 0.5 mM and 1 mM, 3 days in vitro): insufficient to cause substantial changes in PNN morphology and expression | PNN morphology and expression (WFA staining intensity) ([2]; 1 mM and 2 mM (FIG. 14 legend)): insufficient to cause substantial changes in PNN morphology and expression | lethal dose [3]: 6200 mg/kg | BBB hindlimb scale score [4]: 21 | WFA-positive moieties, of baseline ECM levels ([5]; dorsal horn of the spinal cord, ten days oral): 71.0±7.20% | HAPLN-1 staining, of baseline levels ([5]; dorsal horn, short-term oral): 68.3±8.09% | staining with HA binding protein (HABP), of baseline levels ([5]; dorsal horn, short-term oral): 64.0±5.84% | PNNs (ACAN staining, HABP) after 10 days oral administration in intact rats ([5]; intact rats, 10 days oral): PNNs are reduced | WFA-positive binding throughout the CNS compared to non-treated animals ([5]; ten days dosing, oral feeding or i.p. injection twice daily): sufficient in decreasing WFA-positive binding | chondroitin sulphate and hyaluronan in the spinal cord ([5]; ten-day non-invasive oral administration): down-regulates both chondroitin sulphate and hyaluronan | lethality and adverse signs [6]: did not show any lethality | teratogenic effect [7]: does not seem to have a teratogenic effect
